Data taken from US8937048B2, “Anti-angiogenic compounds” (Covx Technologies Ireland, Limited, priority 2008, dated 2015).
Where a SMILES comes first, the peptide text is derived from it. Bridges are numbered along the chain shown (N, C = ends). [ ]: non-standard residue; d: D form.

target: T1, recombinant human VEGF165 (Homo sapiens, UniProt P15692); assay: VEGF peptide binding assay (competition ELISA, VEGF165 binding to coated VEGFR2/Fc)
T1 sequence (P15692 27-191 isoform P15692-4): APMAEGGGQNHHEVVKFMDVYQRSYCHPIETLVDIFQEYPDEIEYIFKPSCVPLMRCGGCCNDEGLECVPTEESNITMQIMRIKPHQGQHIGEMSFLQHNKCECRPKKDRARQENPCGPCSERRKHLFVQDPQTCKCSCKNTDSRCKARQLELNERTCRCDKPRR
Protocol: High-binding half-well 96-well plates (Costar #3690) were coated with recombinant human VEGFR2/Fc (50 ng/well) in 50 μl PBS, and incubated at 4° C. overnight. After washing the plates three times with 1× washing buffer (KPL Cat#50-65-00) and blocking with Superblock (Scytek #AAA500) at room temperature (RT) for 1 hour, VEGF-peptides of the invention were serially diluted (concentrations: 0.128-10,000 nM) in the presence of 25 ng/ml of recombinant human VEGF165 in […] Superblock, and were then added to the 96-well plates and incubated at RT for 1 hour. Peptides of the invention tested in this fashion were all capped at the amino terminus with a C(O)CH3 group and at the carboxyl terminus with a NH2 group. The plates were then washed three times with washing buffer, and a diluted (1:500) biotinylated anti-human VEGF antibody (R&D systems, Cat# BAF293) was added and incubated at RT for 2 hours. After washing the plates, streptavidin HRP conjugate (1:200 in Superblock) (R&D systems, Cat# DY998) was added to detect the bound anti-VEGF antibody, followed by addition of tetramethylbenzidine (TMB) substrate (Pierce, Cat#34021) for color development. The reaction was stopped with 2 M H2SO4. OD450 was measured using SpectraMax (Molecular Device) with a correction wavelength of 540 nm. The data were analyzed using Prism software. OD450 values were plotted as a function of the concentrations of the VEGF peptides. IC50 values, indicative of the potency of the VEGF peptides to inhibit VEGF-VEGFR2 interaction, were obtained using a sigmoid dose-response curve fit in Prism.

SMILES	IC50
CC[C@H](C)[C@@H]1NC(=O)[C@H](CC(=O)O)NC(=O)[C@@H](NC(=O)[C@H](CC(N)=O)NC(=O)[C@@H]2CCCN2C(=O)[C@H](CCC(=O)O)NC(=O)[C@@H](NC(C)=O)C(C)C)CSSC[C@@H](C(=O)N[C@@H](Cc2ccccc2)C(=O)N[C@@H](CCC(=O)O)C(=O)N[C@@H](CCCNC(=N)N)C(=O)N[C@@H](CC(C)C)C(=O)N[C@@H](Cc2ccc(O)cc2)C(=O)NCC(=O)NCC(=O)N[C@@H](Cc2c[nH]c3ccccc23)C(N)=O)NC(=O)[C@H](CCC(=O)O)NC(=O)[C@H](Cc2c[nH]c3ccccc23)NC(=O)[C@H](C(C)C)NC(=O)[C@H](Cc2c[nH]c3ccccc23)NC(=O)[C@H](CCSC)NC(=O)[C@H](C(C)C)NC(=O)[C@H](Cc2c[nH]cn2)NC1=O [Compound 35, VEPNCDIHVMWVWECFERLYGGW] (Ac-VEPNCDIHVMWVWECFERLYGGW-NH2; disulfide 5-15 (inferred))	325 nM
CC[C@H](C)[C@@H]1NC(=O)[C@H](CC(=O)O)NC(=O)[C@@H](NC(=O)[C@H](CC(N)=O)NC(=O)[C@@H]2CCCN2C(=O)[C@H](CCC(=O)O)NC(=O)[C@@H](NC(C)=O)C(C)C)CSSC[C@@H](C(=O)N[C@@H](Cc2ccccc2)C(=O)N[C@@H](CCC(=O)O)C(=O)N[C@@H](CCCNC(=N)N)C(=O)N[C@@H](CC(C)C)C(N)=O)NC(=O)[C@H](CCC(=O)O)NC(=O)[C@H](Cc2c[nH]c3ccccc23)NC(=O)[C@H](C(C)C)NC(=O)[C@H](Cc2c[nH]c3ccccc23)NC(=O)[C@H](CCSC)NC(=O)[C@H](C(C)C)NC(=O)[C@H](Cc2c[nH]cn2)NC1=O [Compound 64, V-E-P-N-C-D-I-H-V-M-W-V-W-E-C-F-E-R-L-] (Ac-VEPNCDIHVMWVWECFERL-NH2; disulfide 5-15 (inferred))	24 nM
CC[C@H](C)[C@@H]1NC(=O)[C@H](CC(=O)O)NC(=O)[C@@H](NC(=O)[C@H](CC(N)=O)NC(=O)[C@@H]2CCCN2C(=O)[C@H](CCC(=O)O)NC(=O)[C@@H](NC(C)=O)C(C)C)CSSC[C@@H](C(=O)N[C@@H](Cc2ccccc2)C(=O)N[C@@H](CCC(=O)O)C(=O)N[C@@H](CCCNC(=N)N)C(=O)N[C@@H](CC(C)C)C(=O)N[C@@H](Cc2ccccc2)C(=O)N[C@@H](CCCCN)C(=O)N[C@@H](CCC(=O)O)C(=O)N[C@@H](C)C(N)=O)NC(=O)[C@H](CCC(=O)O)NC(=O)[C@H](Cc2c[nH]c3ccccc23)NC(=O)[C@H](C(C)C)NC(=O)[C@H](Cc2c[nH]c3ccccc23)NC(=O)[C@H](CCSC)NC(=O)[C@H](C(C)C)NC(=O)[C@H](Cc2c[nH]cn2)NC1=O [Compound 53, VEPNCDIHVMWVWECFERLFKEA] (Ac-VEPNCDIHVMWVWECFERLFKEA-NH2; disulfide 5-15 (inferred))	31.4 nM
CC[C@H](C)[C@@H]1NC(=O)[C@H](CC(=O)O)NC(=O)[C@@H](NC(=O)[C@H](CC(N)=O)NC(=O)[C@@H]2CCCN2C(=O)[C@H](CCC(=O)O)NC(=O)[C@@H](NC(C)=O)C(C)C)CSSC[C@@H](C(=O)N[C@@H](Cc2ccccc2)C(=O)N[C@@H](CCC(=O)O)C(=O)N[C@@H](CCCNC(=N)N)C(=O)N[C@@H](CC(C)C)C(=O)N[C@@H](Cc2ccc(O)cc2)C(=O)NCC(=O)N[C@@H](CC(C)C)C(=O)N[C@@H](CO)C(N)=O)NC(=O)[C@H](CCC(=O)O)NC(=O)[C@H](Cc2c[nH]c3ccccc23)NC(=O)[C@H](C(C)C)NC(=O)[C@H](Cc2c[nH]c3ccccc23)NC(=O)[C@H](CCSC)NC(=O)[C@H](C(C)C)NC(=O)[C@H](Cc2c[nH]cn2)NC1=O [Compound 71, VEPNCDIHVMWVWECFERLYGLS] (Ac-VEPNCDIHVMWVWECFERLYGLS-NH2; disulfide 5-15 (inferred))	5.4 nM
CC[C@H](C)[C@@H]1NC(=O)[C@H](CC(=O)O)NC(=O)[C@@H](NC(=O)[C@H](CC(N)=O)NC(=O)[C@@H]2CCCN2C(=O)[C@H](CCC(=O)O)NC(=O)[C@@H](NC(C)=O)C(C)C)CSSC[C@@H](C(=O)N[C@@H](Cc2ccccc2)C(=O)N[C@@H](CCC(=O)O)C(=O)N[C@@H](CCCNC(=N)N)C(=O)N[C@@H](CC(C)C)C(=O)N[C@@H](Cc2ccccc2)C(=O)N[C@@H](CCCCN)C(=O)N[C@@H](CCC(=O)O)C(=O)N[C@@H](C)C(N)=O)NC(=O)[C@H](C(C)C)NC(=O)[C@H](Cc2c[nH]c3ccccc23)NC(=O)[C@H](C(C)C)NC(=O)[C@H](Cc2c[nH]c3ccccc23)NC(=O)[C@H](CCSC)NC(=O)[C@H](C(C)C)NC(=O)[C@H](Cc2c[nH]cn2)NC1=O [Compound 37, VEPNCDIHVMWVWVCFERLFKEA] (Ac-VEPNCDIHVMWVWVCFERLFKEA-NH2; disulfide 5-15 (inferred))	59 nM
CC[C@H](C)[C@@H]1NC(=O)[C@H](CC(=O)O)NC(=O)[C@@H](NC(=O)[C@H](CC(N)=O)NC(=O)[C@@H]2CCCN2C(=O)[C@H](CCC(=O)O)NC(=O)[C@@H](NC(C)=O)C(C)C)CSSC[C@@H](C(=O)N[C@@H](Cc2ccccc2)C(=O)N[C@@H](CCC(=O)O)C(=O)N[C@@H](CCCNC(=N)N)C(=O)N[C@@H](CC(C)C)C(=O)N[C@H](CC(C)C)C(=O)N[C@@H](CCCCNC(C)=O)C(N)=O)NC(=O)[C@H](CCC(=O)O)NC(=O)[C@H](Cc2c[nH]c3ccccc23)NC(=O)[C@H](C(C)C)NC(=O)[C@H](Cc2c[nH]c3ccccc23)NC(=O)[C@H](CCSC)NC(=O)[C@H](C(C)C)NC(=O)[C@H](Cc2c[nH]cn2)NC1=O [Compound 60, V-E-P-N-C-D-I-H-V-M-W-V-W-E-C-F-E-R-L-(D-Leu)-(Kac)] (Ac-VEPNCDIHVMWVWECFERL[dL]K(Ac)-NH2; disulfide 5-15 (inferred))	25 nM
CC[C@H](C)[C@@H]1NC(=O)[C@H](CC(=O)O)NC(=O)[C@@H](NC(=O)[C@H](CC(N)=O)NC(=O)[C@@H]2CCCN2C(=O)[C@H](CCC(=O)O)NC(=O)[C@@H](NC(C)=O)C(C)C)CSSC[C@@H](C(=O)N[C@@H](Cc2ccccc2)C(=O)N[C@@H](CCC(=O)O)C(=O)N[C@@H](CCCNC(=N)N)C(=O)N[C@@H](CC(C)C)C(=O)N[C@@H](CCSC)C(=O)N[C@@H](CCCNC(=N)N)C(N)=O)NC(=O)[C@H](CCC(=O)O)NC(=O)[C@H](Cc2c[nH]c3ccccc23)NC(=O)[C@H](C(C)C)NC(=O)[C@H](Cc2c[nH]c3ccccc23)NC(=O)[C@H](CCSC)NC(=O)[C@H](C(C)C)NC(=O)[C@H](Cc2c[nH]cn2)NC1=O [Compound 49, VEPNCDIHVMWVWECFERLMR] (Ac-VEPNCDIHVMWVWECFERLMR-NH2; disulfide 5-15 (inferred))	34.5 nM
CC[C@H](C)[C@@H]1NC(=O)[C@H](CC(=O)O)NC(=O)[C@@H](NC(=O)[C@H](CC(N)=O)NC(=O)[C@@H]2CCCN2C(=O)[C@H](CCC(=O)O)NC(=O)[C@@H](NC(C)=O)C(C)C)CSSC[C@@H](C(=O)N[C@@H](Cc2ccccc2)C(=O)N[C@@H](CCC(=O)O)C(=O)N[C@@H](CCCNC(=N)N)C(=O)N[C@@H](CC(C)C)C(=O)N[C@@H](CC(C)C)C(=O)N[C@@H](CCCCNC(C)=O)C(N)=O)NC(=O)[C@H](CCC(=O)O)NC(=O)[C@H](Cc2c[nH]c3ccccc23)NC(=O)[C@H](C(C)C)NC(=O)[C@H](Cc2c[nH]c3ccccc23)NC(=O)[C@H](CCSC)NC(=O)[C@H](C(C)C)NC(=O)[C@H](Cc2c[nH]cn2)NC1=O [Compound 68, VEPNCDIHVMWVWECFERLL-(Kac)] (Ac-VEPNCDIHVMWVWECFERLLK(Ac)-NH2; disulfide 5-15 (inferred))	10 nM
